Measured values as given in ChEMBL document CHEMBL1145130, “S-acyl-2-thioethyl phosphoramidate diester derivatives as mononucleotide prodrugs” (J Med Chem, 2003).

Legend:
CEM-SS = assay: Cytotoxic concentration required to reduce viability of uninfected cells in CEM-SS cell line; format: functional; settings: Homo sapiens
[1] = tested on: Human immunodeficiency virus 1; assay: Effective concentration required to inhibit HIV-1 replication in CEM-SS cell line; format: functional, organism-based; settings: Human immunodeficiency virus 1, CEM-SS
[2] = tested on: Human immunodeficiency virus 1; assay: Effective concentration required to inhibit HIV-1 replication in CEM/TK cell line; format: functional, organism-based; settings: Human immunodeficiency virus 1, CEM-TK(-)
[3] = tested on: Human immunodeficiency virus 1; assay: Effective concentration required to inhibit HIV-1 replication in MT-4 cell line; format: functional, organism-based; settings: Human immunodeficiency virus 1, MT4
MT4 = assay: Cytotoxic concentration required to reduce viability of uninfected cells in MT-4 cell line; format: functional; settings: Homo sapiens
CEM/TK- (Homo sapiens) = assay: Cytotoxic concentration required to reduce viability of uninfected cells in CEM/TK cell line
CEM-TK(-) (Homo sapiens) = assay: Compound was tested for its cytotoxic concentration required to reduce viability of uninfected cells in CEM/TK(-) cell line

| Structure (SMILES) | CC50 (CEM-SS) [nM] | EC50 [1] [nM] | EC50 [2] [nM] | EC50 [3] [nM] | CC50 (MT4) [nM] | CC50 (CEM/TK- (Homo sapiens)) [nM] | CC50 (CEM-TK(-) (Homo sapiens)) [nM] |
| --- | --- | --- | --- | --- | --- | --- | --- |
| Cc1cn(C2CC(N=[N+]=[N-])C(COP(=O)(Nc3ccccc3)OCCSC(=O)C(C)(C)C)O2)c(=O)[nH]c1=O (stereo not given) | > 10000 | 5 | > 10000 | 700 | > 10000 | > 10000 | – |
| COC(=O)[C@H](C)NP(=O)(OCCSC(=O)C(C)(C)C)OCC1OC(n2cc(C)c(=O)[nH]c2=O)CC1N=[N+]=[N-] (stereo not given in full) | > 100000 | 54 | 4300 | 340 | > 100000 | > 100000 | – |
| COC(=O)C(C)NP(=O)(OCCSC(=O)C(C)(C)C)OCC1OC(n2cc(C)c(=O)[nH]c2=O)CC1N=[N+]=[N-] (stereo not given) | > 100000 | 20 | 2100 | 420 | > 100000 | > 100000 | – |
| COC(=O)[C@H](Cc1ccc(O)cc1)NP(=O)(OCCSC(=O)C(C)(C)C)OCC1OC(n2cc(C)c(=O)[nH]c2=O)CC1N=[N+]=[N-] (stereo not given in full) | > 100000 | 90 | 5300 | 740 | > 100000 | > 100000 | – |
| CCC(NP(=O)(OCCSC(=O)C(C)(C)C)OCC1OC(n2cc(C)c(=O)[nH]c2=O)CC1N=[N+]=[N-])C(=O)OC (stereo not given) | > 100000 | 6 | 2400 | 130 | > 100000 | > 100000 | – |
| Cc1cn(C2CC(N=[N+]=[N-])C(COP(=O)(OCCSC(=O)C(C)(C)C)N3CCCCC3)O2)c(=O)[nH]c1=O (stereo not given) | > 100000 | 20 | 5200 | 220 | > 100000 | > 100000 | – |
| COC(=O)C(C)(C)NP(=O)(OCCSC(=O)C(C)(C)C)OCC1OC(n2cc(C)c(=O)[nH]c2=O)CC1N=[N+]=[N-] (stereo not given) | > 100000 | 80 | 2900 | 540 | > 100000 | – | > 100000 |
| Cc1cn([C@H]2C[C@H](N=[N+]=[N-])[C@@H](CO)O2)c(=O)[nH]c1=O [ZIDOVUDINE] | > 100000 | 6 | > 100000 | 17 | 75000 | > 100000 | – |
| COC(=O)[C@H](CO[Si](C)(C)C(C)(C)C)NP(=O)(OCCSC(=O)C(C)(C)C)OCC1OC(n2cc(C)c(=O)[nH]c2=O)CC1N=[N+]=[N-] (stereo not given in full) | > 10000 | 100 | 1000 | 400 | > 10000 | > 10000 | – |
| COC(=O)[C@@H](C)NP(=O)(OCCSC(=O)C(C)(C)C)OCC1OC(n2cc(C)c(=O)[nH]c2=O)CC1N=[N+]=[N-] (stereo not given in full) | > 100000 | 70 | 2400 | 450 | > 100000 | > 100000 | – |
| COC(=O)[C@H](C)NP(=O)(OC[C@H]1O[C@@H](n2cc(C)c(=O)[nH]c2=O)C[C@@H]1N=[N+]=[N-])Oc1ccccc1 (stereo not given in full) | > 100000 | 50 | 4300 | 340 | > 10000 | > 100000 | – |
| COC(=O)[C@H](COC(C)=O)NP(=O)(OCCSC(=O)C(C)(C)C)OCC1OC(n2cc(C)c(=O)[nH]c2=O)CC1N=[N+]=[N-] (stereo not given in full) | > 100000 | 7 | 16000 | 53 | > 100000 | > 100000 | – |
| COC(=O)CNP(=O)(OCCSC(=O)C(C)(C)C)OCC1OC(n2cc(C)c(=O)[nH]c2=O)CC1N=[N+]=[N-] (stereo not given) | > 100000 | 9 | 1400 | 450 | > 100000 | > 100000 | – |
| Cc1cn(C2CC(N=[N+]=[N-])C(COP(=O)(NC(C)C)OCCSC(=O)C(C)(C)C)O2)c(=O)[nH]c1=O (stereo not given) | > 100000 | 20 | 750 | 130 | > 100000 | > 100000 | – |
| COC(=O)[C@H](Cc1ccccc1)NP(=O)(OCCSC(=O)C(C)(C)C)OCC1OC(n2cc(C)c(=O)[nH]c2=O)CC1N=[N+]=[N-] (stereo not given in full) | > 100000 | 27 | 2300 | 250 | > 10000 | > 10000 | – |
